From US5736559A, “Biphenyl derivatives, pharmaceutical compositions containing these compounds and processes for preparing them” (Karl Thomae GmbH, priority 1991, dated 1998)
Structures can show the parent of a compound that is named as a salt.

Tests used:
[1] = molecular target: Fibrinogen binding to human thrombocytes; assay: Fibrinogen binding to human thrombocytes; details: 125I fibrinogen; gel-filtered human platelets; ADP; 20 minutes at ambient temperature; read-out: Fibrinogen binding test IC50
Description: Fibrinogen binding to human thrombocytes The blood obtained by puncturing an antecubital vein is anticoagulated with trisodium citrate (final concentration: 13 mM) and centrifuged for 10 minutes at 170 xg. The supernatant platelet-rich plasma is poured onto a Sepharose 2B column (Pharmacia) and eluted with a solution of 90 mM common salt, 14 mM trisodium citrate, 5 mM glucose and 50 mM Tris(hydroxymethyl)aminomethane, adjusted to pH 7.4. The gel-filtered platelets (GFP) appearing before the plasma proteins are used for the binding experiments. 50 μl of a 60 mM calcium chloride solution, 50 μl of a 0.6 mM adenosine diphosphate solution, 100 μl of substance solution or solvent and 50 μl of fibrinogen solution (containing 3 μg of ^125 I fibrinogen) are added to 750 μl of GFP and incubated for 20 minutes at ambient temperature. The non-specific binding is determined in the presence of 3 mg/ml of cold fibrinogen. 900 μl of the incubated material are carefully pipetted onto 250 μl of silicon oil (AP 38: AR 20, 1:2 v/v, Wacker Chemie) in Eppendorf tubes and centrifuged for 2 minutes at 10,000 xg. The aqueous supernatant and some of the oil are drawn off, the tips of the tubes are cut off together with the platelet pellet and the quantity of bound fibrinogen is determined in a gamma counter. The concentration of substance which brings about a 50% inhibition in fibrinogen binding is determined from a series of concentrations and is given as the IC50 value.

[2] = tested on: thrombocyte (platelet) aggregation; assay: Antithrombotic activity: collagen-induced thrombocyte aggregation in platelet rich plasma (Born and Cross); type: cell-based; details: Homo sapiens, platelet rich plasma from healthy test subjects, 10 minutes at 37° C. preincubation, 50% change in optical density, read-out: Inhibition of platelet aggregation EC50
Description: 2. Antithrombotic activity Method: Thrombocyte aggregation is measured in platelet rich plasma from healthy test subjects using the Born and Cross method (J. Physiol. 170, 397 (1964)). In order to inhibit coagulation the blood is mixed with sodium citrate 3.14% in a ratio by volume of 1:10. Collagen-induced aggregation: The course of the decrease in optical density of the platelet suspension is photometrically measured and recorded after the addition of the substance which triggers aggregation. The rate of aggregation is deduced from the gradient angle of the density curve. The point on the curve where there is maximum transmittance is used to calculate the optical density. The quantity of collagen used is as little as possible but sufficient to give an irreversible reaction curve. Standard commercial collagen produced by Hormonchemie of Munich is used. Before the addition of the collagen the plasma is incubated for 10 minutes at 37° C. with the substance. From the measurements obtained, an EC50 is determined graphically, relating to a 50% change in optical density in terms of the inhibition of aggregation.

Row | Structure (SMILES) | IC50 [1] [µM] | EC50 [2] [µM]
1 | N=C(N)c1ccc(-c2ccc(C(=O)NCCCC(=O)O)cc2)cc1 [1(2), 4-amidino-4'-[(3-carboxypropyl)aminocarbonyl]-biphenyl] | 0.12 | 7
2 | N=C(N)c1ccc(-c2ccc(OCC(=O)NCC(=O)O)cc2)cc1 [1(3), 4-amidino-4'-[[(carboxymethylamino)carbonyl]-methoxy]-biphenyl] | 1.8 | 13
3 | N=C(N)c1ccc(-c2ccc(OCC(=O)NCCC(=O)O)cc2)cc1 [1(4), 4-amidino-4'-[[(2-carboxyethyl)aminocarbonyl]-methyloxy]biphenyl] | 0.35 | 1.7
4 | N=C(N)c1ccc(-c2ccc(CC(=O)Nc3cccc(CC(=O)O)c3)cc2)cc1 [1(5), 4-amidino-4'-[[(3-carboxymethylphenyl)-aminocarbonyl]methyl]biphenyl] | 65 | > 100
5 | N=C(N)c1ccc(-c2ccc(OCC(=O)N3CCC(C(=O)O)CC3)cc2)cc1 [1(6), 4-amidino-4'-[[(4-carboxypiperidino)carbonyl]-methyloxy]biphenyl] | 0.33 | 1.2
6 | N=C(N)c1ccc(-c2ccc(OCC(=O)N3CCCC(C(=O)O)C3)cc2)cc1 (centres unmarked) [1(7), 4-amidino-4'-[[(3-carboxypiperidino)carbonyl]-methyloxy]biphenyl] | 1.9 | 3.8
7 | N=C(N)c1ccc(-c2ccc(C(=O)N3CCCC(CC(=O)O)C3)cc2)cc1 (centres unmarked) [1(41), 4-amidino-4'-[(3-carboxymethylpiperidino)-carbonyl]biphenyl hydrochloride] | 0.52 | 2.6
8 | N=C(N)c1ccc(-c2ccc(CC(=O)N3CCC(C(=O)O)CC3)cc2)cc1 [1(45), 4-amidino-4'-[(4-carboxypiperidino)-carbonylmethyl]biphenyl hydrochloride] | 0.22 | 2
9 | N=C(N)c1ccc(-c2ccc(CC(=O)N3CCCC(CC(=O)O)C3)cc2)cc1 (centres unmarked) [1(47), 4-amidino-4'-[(3-carboxymethylpiperidino)-carbonylmethyl]biphenyl hydrochloride] | 0.47 | 2.7
10 | N=C(N)c1ccc(-c2ccc(C(=O)NCCCCC(=O)O)cc2)cc1 [1(65), 4-amidino-4'-[(4-carboxybutyl)aminocarbonyl]-biphenyl hydrochloride] | 0.22 | 2.4
11 | N=C(N)c1ccc(-c2ccc(C(=O)N3CCN(CC(=O)O)CC3)cc2)cc1 [1(67), 4-amidino-4'-[(4-carboxymethylpiperazino)-carbonyl]biphenyl hydrochloride] | 0.18 | 0.35
12 | N=C(N)c1ccc(-c2ccc(C(=O)N3CCN(CCC(=O)O)CC3)cc2)cc1 [1(68), 4-amidino-4'-[[4-(2-carboxyethyl)piperazino]-carbonyl]biphenyl dihydrochloride] | 0.56 | 3.4
13 | N=C(N)c1ccc(-c2ccc(NS(=O)(=O)NCCC(=O)O)cc2)cc1 [1(69), 4-amidino-4'-[(2-carboxyethyl)aminosulphonyl-amino]biphenyl] | 3.1 | 12
14 | N=C(N)c1ccc(-c2ccc(C(=O)N3CCC(C(=O)O)CC3)cc2)cc1 [1(74), 4-amidino-4'-[(4-carboxypiperidino)carbonyl]-biphenyl hydrochloride] | 2.7 | 10.7
15 | N=C(N)c1ccc(-c2ccc(C(=O)NC3CCC(C(=O)O)CC3)cc2)cc1 (centres unmarked) [1(80), 4-amidino-4'-[(4-carboxycyclohexyl)aminocarbonyl]-biphenyl hydrochloride] | 0.031 | 0.04
16 | CN(C(=O)c1ccc(-c2ccc(C(=N)N)cc2)cc1)C1CCC(C(=O)O)CC1 (centres unmarked) [1(94), 4-amidino-4'-[N-(4-carboxycyclohexyl)-N-methyl-aminocarbonyl]biphenyl] |  | 0.04
17 | N=C(N)c1ccc(-c2ccc(OCCCC(=O)O)cc2)cc1 [2(1), 4-amidino-4'-(3-carboxypropyloxy)biphenyl] | > 10 | 56

Row | Structure (SMILES) | IC50 [1] [µM] | EC50 [2] [µM]
18 | N=C(N)c1ccc(-c2ccc(OCCCCC(=O)O)cc2)cc1 [2(2), 4-amidino-4'-(4-carboxybutyloxy)biphenyl] | 0.046 | 45
19 | COC(=O)CCCC(=O)Nc1ccc(-c2ccc(C(=N)N)cc2)cc1 [6(1), 4-amidino-4'-(4-methoxycarbonylbutyrylamino)-biphenyl hydrochloride] | 5.6 | 3.7
20 | COC(=O)CNC(=O)COc1ccc(-c2ccc(C(=N)N)cc2)cc1 [6(2), 4-amidino-4'-[[(4-methoxycarbonylmethyl)-aminocarbonyl]methyloxy]biphenyl hydrochloride] | 14 | 40
21 | COC(=O)CCNC(=O)COc1ccc(-c2ccc(C(=N)N)cc2)cc1 [6(3), 4-amidino-4'-[[(2-methoxycarbonylethyl)-aminocarbonyl]methyloxy]biphenyl h ydrochloride] | 18 | 17
22 | COC(=O)Cc1cccc(NC(=O)c2ccc(-c3ccc(C(=N)N)cc3)cc2)c1 [6(4), 4-amidino-4'-[[3-(methoxycarboxylmethyl)phenyl]-aminocarbonyl]biphenyl hydrochloride] | 47 | 4.4
23 | COC(=O)CCCOc1ccc(-c2ccc(C(=N)N)cc2)cc1 [6(8), 4-amidino-4'-(3-methoxycarbonylpropyloxy)biphenyl dihydrogencarbonate] | 5.2 | 3.4
24 | COC(=O)CCCCOc1ccc(-c2ccc(C(=N)N)cc2)cc1 [6(9), 4-amidino-4'-(4-methoxycarbonylbutyloxy)biphenyl hydrochloride] | 0.97 | 1.3
25 | COC(=O)Cc1cccc(NC(=O)Cc2ccc(-c3ccc(C(=N)N)cc3)cc2)c1 [6(46), 4-amidino-4'-[[[3-(methoxycarbonylmethyl)phenyl]-aminocarbonyl]methyl]biphenyl hydrochloride] | 19 | 82
26 | COC(=O)CCc1cccc(NC(=O)Cc2ccc(-c3ccc(C(=N)N)cc3)cc2)c1 [6(47), 4-amidino-4'-[[[3-(2-methoxycarbonylethyl)phenyl]-aminocarbonyl]methyl]biphenyl hydrochloride] | 4.9 | 42
27 | COC(=O)C1CCN(C(=O)COc2ccc(-c3ccc(C(=N)N)cc3)cc2)CC1 [6(48), 4-amidino-4'-[[(4-methoxycarbonylpiperidino)-carbonyl]methyloxy]biphenyl hydrochloride] | 25 | 0.59
28 | COC(=O)C1CCCN(C(=O)COc2ccc(-c3ccc(C(=N)N)cc3)cc2)C1 (centres unmarked) [6(49), 4-amidino-4'-[[(3-methoxycarbonylpiperidino)-carbonyl]methyloxy]biphenyl hydrochloride] | 32 | 36
29 | COC(=O)CC1CCN(C(=O)c2ccc(-c3ccc(C(=N)N)cc3)cc2)CC1 [6(50), 4-amidino-4'-[(4-methoxycarbonylmethylpiperidino)-carbonyl]biphenyl hydrochloride] | 0.34 | 0.89
30 | COC(=O)CC1CCCN(C(=O)c2ccc(-c3ccc(C(=N)N)cc3)cc2)C1 (centres unmarked) [6(52), 4-amidino-4'-[(3-methoxycarbonylmethylpiperidino)-carbonyl]biphenyl hydrochloride] | 16 | 38
31 | COC(=O)C1CCN(C(=O)Cc2ccc(-c3ccc(C(=N)N)cc3)cc2)CC1 [6(56), 4-amidino-4'-[(4-methoxycarbonylpiperidino)-carbonylmethyl]biphenyl hydrochloride] | 5.9 | 4.9
32 | COC(=O)CC1CCCN(C(=O)Cc2ccc(-c3ccc(C(=N)N)cc3)cc2)C1 (centres unmarked) [6(58), 4-amidino-4'-[(3-methoxycarbonylmethylpiperidino)-carbonylmethyl]biphenyl hydrochloride] | 34 | 23
33 | COC(=O)C1CCC(N(C)C(=O)c2ccc(-c3ccc(C(=N)N)cc3)cc2)CC1 (centres unmarked) [6(98), 4-amidino-4'-[N-(4-methoxycarbonylcyclohexyl)-N-methylaminocarbonyl]biphenyl hydrochloride] |  | 0.37
34 | CCOC(=O)CC1CCN(C(=O)c2ccc(-c3ccc(C(=N)NC(=O)OCC)cc3)cc2)CC1 [8(7), 4-(N-ethoxycarbonylamidino)-4'-[(4-ethoxycarbonyl-methylpiperidino)carbonyl]biphenyl] |  | > 10
